Data published in PubChem BioAssay (NCI).
Values joined by “and” are separate entries in the source; they are usually repeats but may differ in a detail not shown here. Equal entries are not always repeated.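 Values below derive from 48-hour exposures of cells grown in 96-well plates, with endpoints linearly interpolated between the two concentrations bracketing the appropriate inhibition level. The concentration for 50% growth inhibition is given as GI50. TGI: total growth inhibition.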 Where a SMILES comes first, the peptide text is derived from it. [ ]: non-standard residue; d: D form. The star is where a group is joined. Bn2Val = CC(C)[C@@H](C(=O)*)N(Cc1ccccc1)Cc1ccccc1; NMeV = CN[C@H](C(=O)O)C(C)C; X29 = COc1ccc(CN*)c(OC)c1; dNMeA = CN[C@H](C)C(=O)O

Legend:
Assay in all cases: NCI-60 cell line screen, 48 h
[1] = system: SNB-75 CNS
[2] = system: OVCAR-8 ovarian
[3] = system: DU-145 prostate
[4] = system: UO-31 renal
[5] = system: SNB-19 CNS
[6] = system: NCI-H460 lung
[7] = system: HOP-92 NSCLC
[8] = system: K-562 leukemia
[9] = system: U251 CNS
[10] = system: RPMI-8226 leukemia

SMILES	TGI [1] [µM]	TGI [2] [µM]	TGI [3] [µM]	TGI [4] [µM]	TGI [5] [µM]	TGI [6] [µM]	TGI [7] [µM]	TGI [8] [µM]	TGI [9] [µM]	TGI [10] [µM]	GI50 [1]	GI50 [4]	GI50 [7]	GI50 [8]	GI50 [9]
CC1(C)CC2(C)CC1CC2(O)c1ccccc1 (stereo not given)	> 100	> 100	> 100	> 100	> 100	> 100	> 100	> 100	> 100	–	–	–	–	–	–
CC(C)=CCOc1cc(NC(=S)c2ccsc2C)ccc1Cl	66.4	> 100	> 100	> 100	> 100	> 100	37.1	> 100	> 100	53.1	–	–	–	–	–
COC(=O)CCc1c(Cc2ccc[nH]2)[nH]c(C(=O)OCc2ccccc2)c1C	–	52.5	> 100	–	85.8	> 100	51.4	58.5	44.1	76.5	–	–	–	–	–
COc1ccc(C(Cc2ccccc2)C2NC(=S)NC2=O)cc1 (stereo not given)	> 25	> 25	> 25	> 25	> 25	> 25	> 25	> 25	> 25	> 25	–	–	–	–	–
O=[N+]([O-])c1ccc2oc(=Nc3ccccc3)c(Nc3ccccc3)nc2c1	79.6	> 100	> 100	> 100	> 100	> 100	93	> 100	> 100	> 100	–	–	–	–	–
[O-][n+]1c(CN2CCCCC2)nc2cccc3c2c1-c1ccccc1-3	50.2	98.2	41.5	26.3	89.4	46	85.6	> 100	> 100	> 100	–	–	–	–	–
CCOC(=O)c1c(C)nc2c(c1-c1cn(-c3ccccc3)nc1-c1ccccc1)C(=O)c1ccccc1-2	> 100	> 100	> 100	–	> 100	–	> 100	> 100	> 100	–	–	–	–	–	–
Cc1ccc(-c2cc(O)c3nc4ccccc4n3c2)cc1	> 100	> 100	> 100	> 100	> 100	> 100	> 100	> 100	> 100	> 100	–	–	–	–	–
Oc1ccccc1C1C=C(c2ccccc2)NC(N2CCCCC2)=C1c1nc2ccccc2[nH]1 (stereo not given)	18.3	30.9	66.6	23.7	28.7	28	26.9	> 100	28.4	49	–	–	–	–	–
Nc1cccc(S(=O)(=O)Nc2nnc(S(N)(=O)=O)s2)c1	> 100	> 100	> 100	> 100	> 100	> 100	> 100	> 100	> 100	> 100	–	–	–	–	–
COc1ccc(CNC(=O)[C@@H]2CCCN2C(=O)[C@@H](C)N(C)C(=O)[C@H](C(C)C)N(C)C(=O)[C@@H](NC(=O)[C@H](C(C)C)N(Cc2ccccc2)Cc2ccccc2)C(C)C)c(OC)c1 (Bn2Val-V[NMeV][dNMeA]P-X29)	7.26	57.6	20.7	12	22.8	15.5	9.1	> 100	5.21	17.2	–	–	–	–	–
NC(=O)c1cc(N(CCO)CCO)c([N+](=O)[O-])cc1[N+](=O)[O-]	–	–	> 100	> 100	> 100	> 100	> 100	> 100	> 100	> 100	–	–	–	–	–
O=C1CC(C(OCc2ccccc2)C(OCc2ccccc2)C(COCc2ccccc2)OCc2ccccc2)CC(=O)N1 (stereo not given)	> 100	> 100	> 100	> 100	> 100	> 100	> 100	> 100	> 100	> 100	29.7 µM and > 75 µM	> 100 µM and 45.7 µM	90.7 µM and 30.3 µM	> 100 µM and 41 µM	> 100 µM and 40 µM
COC(=O)C(=O)C(C(=O)C(=O)Nc1cccc([N+](=O)[O-])c1)c1nc2ccc(Cl)cc2[nH]c1=O (stereo not given)	> 100	> 100	> 100	> 100	> 100	> 100	> 100	–	> 100	–	–	–	–	–	–
CCN(CC)CCCNC(=O)c1cc2cc(NC(=O)c3cc4cc([N+](=O)[O-])ccc4[nH]3)ccc2[nH]1	> 100	> 100	> 100	> 100	> 100	> 100	> 100	> 100	–	> 100	–	–	–	–	–
CC(=O)NC1=C(NCCCl)C(=O)c2ccccc2C1=O	> 100	52.4	> 100	–	> 100	> 100	> 100	> 100	> 100	> 100	–	–	–	–	–
Cc1ccc(-c2nnc(CCCCCCCCc3nnc(-c4ccc(C)cc4O)n3N)n2N)c(O)c1	> 100	> 100	> 100	> 100	> 100	> 100	> 100	–	> 100	> 100	–	–	–	–	–
Cc1nc2n(c1/C=C1/C(=O)Nc3ccccc31)CCS2	87	> 100	> 100	> 100	> 100	> 100	> 100	> 100	> 100	> 100	–	–	–	–	–
O=S(=O)(O)c1cccc2cccc(N=Nc3c(O)ccc4ccccc34)c12	> 100	> 100	> 100	> 100	> 100	> 100	> 100	> 100	> 100	–	–	–	–	–	–
CC1(C)C(CCO)CC1n1ccc(=O)[nH]c1=O (stereo not given)	> 100	–	> 100	> 100	> 100	–	> 100	72.4	> 100	–	–	–	–	–	–
OCC(CCc1ccccc1I)C1=CCC2(CC1)OCCO2 (stereo not given)	52	43.1	48	41.1	37.7	57.7	28.6	> 100	41.8	> 100	–	–	–	–	–
O=C1C=C2CCC[C@H]3OC(=O)C[C@@]23CC1	–	–	> 100	–	> 100	> 100	> 100	> 100	> 100	> 100	–	–	–	–	–
